{"source": "patent US8637038B2", "about": "“Methods for inhibiting allograft rejection” (Rigel Pharmaceuticals, Inc., priority 2011, dated 2014)", "key": {"INSR": {"tested_on": "INSR", "assay": "Insulin HeLa phospho-Akt", "assay_type": "cell-based", "conditions": "upstream kinase INSR", "description": "Growth factor-dependent protein phosphorylation was detected in HeLa cells by staining permeabilized cells with phospho-specific antibodies and quantified by chemiluminescence (Luminator, Wallac Multilabel Counter; Perkin Elmer). Akt phosphorylation was measured following insulin stimulation and EGFR phosphorylation was measured following EGF stimulation (Phospho-AKT, Cell signaling technology, Danvers, Mass.; 1 μM Insulin, Millipore, Billerica, Mass.; Phospho-EGFR, tyr1173, clone 53A3, Cell Signaling Technology; 200 ng/ml recombinant human EGF, PeproTech, Hamburg, Germany). Human umbilical vein endothelial cells (HUVECs) were stimulated with VEGF and VEGFR2 phosphorylation was assessed by ELISA (100 ng/ml VEGF165, R&D Systems; Rabbit anti-phospho-VEGFR2 mAb, Cell Signaling Technology)."}, "[1]": {"tested_on": "Lew recipients of heterotopic BN heart transplants", "assay": "Five-day heart allograft study: donor-specific IgM antibodies by flow cytometry", "assay_type": "in vivo, rat", "conditions": "LD and HD groups; five days; p<0.001", "description": "Compound I and Compound III were provided by Rigel (South San Francisco, Calif.) and Tacrolimus was provided by Astellas (Munich, Germany). All drugs were administrated orally each in two different concentrations: Compound I LD (15 mg/kg BID; n=6) and HD (60 mg/kg BID; n=6); Compound III LD (5 mg/kg BID; n=6) and HD (20 mg/kg BID; n=6); Tac LD (1 mg/kg QD; n=6) and HD (4 mg/kg QD; n=6). Administration of all drugs was performed every day at the same time points. Tacrolimus was applied only once a day (QD) every 24 hours. During administration of Compound I (BID) and Compound III (BID) a 12 hour pause was kept in between each drug application.\nLew recipients of heterotopic BN heart transplants were randomly assigned to their group. Animals were either left untreated (groups 1 and 2; see Table 1,5-day study) or received their group specific medication (groups 3-8; see Table 1,5-day study) by oral application. An untreated syngeneic transplant group Lew-Lew was generated as control.\nDonor splenocytes were isolated and erythrocytes were lysed using the ACK buffer (Lonza, Walkersville, Md.). Sera from recipient rats were decomplemented and equal amounts of sera and splenocyte suspensions (5×10^6 cells/ml) were incubated for 30 minutes at room temperature. IgM antibodies were stained by incubation of the cells with a conjugated mouse antibody specific for the Fc-portion of rat IgM (Monoclonal Anti-rat IGM, Clone RTM-32, Sigma) followed by incubation with a 488-conjugated secondary antibody (Invitrogen). Cells were washed with PBS, fixed with 2% paraformaldehyde (Science Services), and analyzed on a FACSCalibur™ system (BD Biosciences). Fluorescence data were expressed as mean fluorescence intensity (MFI) using Flowjo software (Tree Star, Inc., Ashland, Oreg.)."}, "JAK1/2/Tyk2": {"tested_on": "JAK1/2/Tyk2", "assay": "IL-6 whole blood lymphocytes phospho-STAT3", "assay_type": "cell-based", "conditions": "Lymphocyte, read-out: IL-6 whole blood lymphocytes phospho-STAT3 EC50", "description": "The activity of Compound III and Compound I was assessed in a panel of cell-based assays. Compound III and Compound I are selective inhibitors of JAK1/3-dependent signaling. Data for a non-selective JAK inhibitor (Compound IV) is shown for reference. Mixed lymphocyte reactions (MLRs) were performed by incubating freshly prepared naive human peripheral blood lymphocytes from one donor with CD80+/CD86+ mature Dendritic Cells derived from a different donor for 5 days. The percentage of CD3+/CD71+ (anti-CD3-APC, Clone HIT3a, anti-CD 71-FITC, Clone M-A712; BD Biosciences, San Jose, Calif.) proliferating cells was assessed by fluorescence-activated cell sorting (FACS; BD Bioscience). Interleukin-2 (IL-2)-dependent human primary T cell proliferation was assessed using CellTiter-Glo® Luminescent Cell Viability Assay (Promega, Madison, Wis.). STAT phosphorylation induced by different cytokines in human primary T cells was measured by intracellular FACS analysis (anti-pY694-STAT5 AlexaFluor488, anti-pY701-STAT1 AlexaFluor488, and anti-pY693-STAT4 AlexaFluor488; BD Biosciences). […] Interferon-γ (IFN-γ) signaling was assessed in the U937 monocytic cell line by measuring ICAM-1 surface expression by FACS (ICAM-1-APC, BD Bioscience)."}, "[2]": {"assay": "In vivo pharmacokinetics, plasma levels by LC/MS/MS", "parameters": "species or system Lewis rats", "conditions": "for time of peak plasma level after administration: male Lewis rats", "description": "Male Lewis rats were orally administered at dosages of Compound I HD (60 mg/kg/BID); Compound I LD (15 mg/kg/BID); Compound III HD (20 mg/kg/BID), and Compound III LD (5 mg/kg/BID), respectively. Plasma levels of drugs were quantified 0.5, 1, 1.5, 2, 3, 4, 6, 8, and 10 hours after administration. Plasma levels of Compound I and Compound III were quantified by LC/MS/MS.\nPharmacokinetics were performed in male Lewis rats. Plasma levels were measured within a 10 hour period. Resulting plasma concentrations of Compound I HD (60 mg/kg BID), Compound I LD (15 mg/kg BID), Compound III HD (20 mg/kg BID), and Compound III LD (5 mg/kg BID) are depicted in FIG. 1. Compound I HD and Compound I LD plasma levels peaked 1.5-2 hours after administration. Compound III HD plasma levels peaked after 3-3.5 hours and Compound III LD levels 2 hours after administration."}, "JAK1/3": {"tested_on": "JAK1/3", "assay": "IL-2 T cell phospho-STAT5", "assay_type": "cell-based", "conditions": "Homo sapiens", "description": "The activity of Compound III and Compound I was assessed in a panel of cell-based assays. Compound III and Compound I are selective inhibitors of JAK1/3-dependent signaling. Data for a non-selective JAK inhibitor (Compound IV) is shown for reference. Mixed lymphocyte reactions (MLRs) were performed by incubating freshly prepared naive human peripheral blood lymphocytes from one donor with CD80+/CD86+ mature Dendritic Cells derived from a different donor for 5 days. The percentage of CD3+/CD71+ (anti-CD3-APC, Clone HIT3a, anti-CD 71-FITC, Clone M-A712; BD Biosciences, San Jose, Calif.) proliferating cells was assessed by fluorescence-activated cell sorting (FACS; BD Bioscience). Interleukin-2 (IL-2)-dependent human primary T cell proliferation was assessed using CellTiter-Glo® Luminescent Cell Viability Assay (Promega, Madison, Wis.). STAT phosphorylation induced by different cytokines in human primary T cells was measured by intracellular FACS analysis (anti-pY694-STAT5 AlexaFluor488, anti-pY701-STAT1 AlexaFluor488, and anti-pY693-STAT4 AlexaFluor488; BD Biosciences). STAT phosphorylation induced by different cytokines was performed in whole blood after red blood cell lysis (Lyse/Fix buffer, BD Biosciences) and methanol permeabilization. Interferon-γ (IFN-γ) signaling was assessed in the U937 monocytic cell line by measuring ICAM-1 surface expression by FACS (ICAM-1-APC, BD Bioscience)."}, "[3]": {"conditions": "HD oral: Compound I 60 mg/kg BID, Compound III 20 mg/kg BID"}, "[4]": {"conditions": "LD oral: Compound I 15 mg/kg BID, Compound III 5 mg/kg BID"}, "[5]": {"conditions": "read-out: EC50, JAK1/3-dependent Stat5 phosphorylation in response to IL-2"}}, "note": "Read-outs that look alike come from different tables or passages of the source.", "data": [{"smiles": "COc1cc(Nc2ncc(C)c(Nc3ccc4oc(=O)[nH]c4c3)n2)cc(C)c1F", "note": "[Compound I, 5-(2-(4-fluoro-3-methoxy-5-methylphenylamino)-5-methylpyrimidin-4-ylamino)benzo[d]oxazol-2(3H)-one]", "values": [{"measurement": "Insulin HeLa phospho-Akt EC50", "setting": "INSR", "result": "Inactive"}, {"measurement": "donor-specific IgM antibodies (DSA) vs. no medication", "setting": "[1]", "result": "significant suppression"}, {"measurement": "EC50", "setting": "JAK1/2/Tyk2; whole blood, JAK1/2/Tyk2", "result": "3.83 ± 1.52", "unit": "µM"}, {"measurement": "time of peak plasma level after administration", "setting": "[2]; [3]", "result": "1.5 to 2", "unit": "h"}, {"measurement": "time of peak plasma level after administration", "setting": "[2]; [4]", "result": "1.5 to 2", "unit": "h"}, {"measurement": "EC50", "setting": "JAK1/3; [5]", "result": 0.021, "unit": "µM"}, {"measurement": "EC50", "setting": "JAK1/3; upstream kinases JAK1/3, read-out: IL-2 T cell phospho-STAT5 EC50", "result": "0.021 ± 0.009", "unit": "µM"}]}, {"smiles": "COc1cc(Nc2ncc(C)c(Nc3ccc4oc(=O)[nH]c4c3)n2)cc(C)c1C", "note": "[Compound III, 5-(2-(3-methoxy-4,5-dimethylphenylamino)-5-methylpyrimidin-4-ylamino)benzol[d]oxazol-2-(3H)-one]", "values": [{"measurement": "Insulin HeLa phospho-Akt EC50", "setting": "INSR", "result": "Inactive"}, {"measurement": "donor-specific IgM antibodies (DSA) vs. no medication", "setting": "[1]", "result": "significant suppression"}, {"measurement": "EC50", "setting": "JAK1/2/Tyk2", "result": "6.69 ± 1.61", "unit": "µM"}, {"measurement": "AUC of HD group relative to LD group", "setting": "[2]; Compound I 60 vs 15 mg/kg BID, Compound III 20 vs 5 mg/kg BID, 10 hour period", "result": "> 22", "unit": "fold"}, {"measurement": "time of peak plasma level after administration", "setting": "[2]; [3]", "result": "3 to 3.5", "unit": "h"}, {"measurement": "time of peak plasma level after administration", "setting": "[2]; [4]", "result": 2, "unit": "h"}, {"measurement": "EC50", "setting": "JAK1/3; [5]", "result": 0.035, "unit": "µM"}, {"measurement": "EC50", "setting": "JAK1/3; read-out: IL-2 T cell phospho-STAT5 EC50", "result": "0.035 ± 0.015", "unit": "µM"}]}]}
